Assay results published in the NIST ThermoML archive (doi:10.1021/je5010214).

Details: Liquid, Vibrating tube method

CC(C)CO [2-methyl-1-propanol]
Details	mass density [kg/m3]
303.15 K, 20042 kPa	809.402
303.15 K, 25084 kPa	812.578
303.15 K, 30167 kPa	816.191
303.15 K, 32070 kPa	817.319
303.15 K, 33147 kPa	817.694
303.15 K, 35162 kPa	818.815
303.15 K, 38019 kPa	820.574
303.15 K, 39970 kPa	821.716
303.15 K, 42004 kPa	823.024
303.15 K, 45033 kPa	824.95
303.15 K, 49864 kPa	827.592
303.15 K, 52115 kPa	829.036
303.15 K, 55239 kPa	830.776
303.15 K, 58089 kPa	832.479
303.15 K, 60079 kPa	833.282
303.15 K, 62294 kPa	834.706
303.15 K, 65137 kPa	835.715
303.16 K, 270.1 kPa	793.901
303.16 K, 464.4 kPa	794.084
303.16 K, 779.6 kPa	794.287
303.16 K, 2945 kPa	796.031
303.16 K, 4911.2 kPa	797.923
303.16 K, 7058.6 kPa	799.569
303.16 K, 12047 kPa	803.47
303.16 K, 22055 kPa	811.092
303.16 K, 28094 kPa	815.049
303.16 K, 32939 kPa	817.604
303.16 K, 34037 kPa	818.139
303.16 K, 48317 kPa	826.769
303.16 K, 66124 kPa	836.43
308.15 K, 96.7 kPa	791.579
308.15 K, 250.6 kPa	791.714
308.15 K, 562.2 kPa	791.995
308.15 K, 991.9 kPa	792.349
308.15 K, 5219.3 kPa	795.881
308.15 K, 10282 kPa	799.926
308.15 K, 15083 kPa	803.575
308.15 K, 32866 kPa	815.75
308.15 K, 35203 kPa	817.171
308.15 K, 48031 kPa	824.96
308.15 K, 55094 kPa	828.952
308.15 K, 60161 kPa	831.729
308.15 K, 62192 kPa	832.798
308.15 K, 66004 kPa	834.804
308.16 K, 770.2 kPa	792.158
308.16 K, 2101.2 kPa	793.3
308.16 K, 3195.1 kPa	794.224
308.16 K, 7083 kPa	797.398
308.16 K, 9108 kPa	799.011
308.16 K, 12379 kPa	801.538
308.16 K, 18161 kPa	805.827
308.16 K, 20006 kPa	807.165
308.16 K, 22192 kPa	808.686
308.16 K, 25100 kPa	810.705
308.16 K, 27887 kPa	812.568
308.16 K, 30041 kPa	813.99
308.16 K, 31933 kPa	815.242
308.16 K, 33077 kPa	815.959
308.16 K, 34026 kPa	816.482
308.16 K, 35193 kPa	817.245
308.16 K, 38088 kPa	818.995
308.16 K, 40106 kPa	820.225
308.16 K, 42282 kPa	821.541
308.16 K, 45145 kPa	823.251
308.16 K, 50089 kPa	826.126
308.16 K, 52047 kPa	827.233
308.16 K, 58085 kPa	830.585
308.16 K, 65217 kPa	834.405
313.15 K, 82.9 kPa	787.4
313.15 K, 316.8 kPa	787.607
313.15 K, 491.8 kPa	787.767
313.15 K, 890.9 kPa	788.108
313.15 K, 981.5 kPa	788.182
313.15 K, 1939.6 kPa	789.038
313.15 K, 2951 kPa	789.905
313.15 K, 4889.1 kPa	791.537
313.15 K, 6856.5 kPa	793.195
313.15 K, 8886.9 kPa	794.841
313.15 K, 10029 kPa	795.77
313.15 K, 11886 kPa	797.214
313.15 K, 14927 kPa	799.577
313.15 K, 17845 kPa	801.775
313.15 K, 20040 kPa	803.389
313.15 K, 21942 kPa	804.76
313.15 K, 24894 kPa	806.85
313.15 K, 28132 kPa	809.095
313.15 K, 29974 kPa	810.333
313.15 K, 32058 kPa	811.716
313.15 K, 35162 kPa	813.664
313.15 K, 37952 kPa	815.444
313.15 K, 40011 kPa	816.732
313.15 K, 41939 kPa	817.878
313.15 K, 45098 kPa	819.95
313.15 K, 47966 kPa	821.512
313.15 K, 49918 kPa	822.65
313.15 K, 52024 kPa	823.857
313.15 K, 54951 kPa	825.557
313.15 K, 58062 kPa	827.336
313.15 K, 60202 kPa	828.515
313.15 K, 65050 kPa	831.15
313.15 K, 66082 kPa	831.7
313.16 K, 33053 kPa	812.371
313.16 K, 33131 kPa	812.356
313.16 K, 34040 kPa	812.94
313.16 K, 62187 kPa	829.599
318.15 K, 368.3 kPa	783.457
318.15 K, 589.4 kPa	783.667
318.15 K, 9887.6 kPa	791.657
318.15 K, 33065 kPa	808.852
318.15 K, 33128 kPa	808.894
318.15 K, 35190 kPa	810.134
318.15 K, 48088 kPa	818.249
318.15 K, 52184 kPa	820.67
318.15 K, 60194 kPa	825.273
318.15 K, 62260 kPa	826.409
318.15 K, 65194 kPa	828.017
318.15 K, 66060 kPa	828.484
318.16 K, 128.5 kPa	783.253
318.16 K, 858.2 kPa	783.902
318.16 K, 1069.5 kPa	784.105
318.16 K, 1979.1 kPa	784.923
318.16 K, 2997.4 kPa	785.79
318.16 K, 4942.6 kPa	787.513
318.16 K, 6987.2 kPa	789.27
318.16 K, 8967.5 kPa	790.929
318.16 K, 11870 kPa	793.265
318.16 K, 14863 kPa	795.639
318.16 K, 17735 kPa	797.848
318.16 K, 19860 kPa	799.438
318.16 K, 21987 kPa	801.004
318.16 K, 25193 kPa	803.357
318.16 K, 27823 kPa	805.216
318.16 K, 30119 kPa	806.799
318.16 K, 32145 kPa	808.205
318.16 K, 34164 kPa	809.488
318.16 K, 38074 kPa	812.009
318.16 K, 40048 kPa	813.265
318.16 K, 41997 kPa	814.496
318.16 K, 45096 kPa	816.426
318.16 K, 50173 kPa	819.491
318.16 K, 55235 kPa	822.46
318.16 K, 58075 kPa	824.084
323.15 K, 62.1 kPa	778.89
323.15 K, 338 kPa	779.159
323.15 K, 557.5 kPa	779.374
323.15 K, 917.3 kPa	779.697
323.15 K, 2125.4 kPa	780.833
323.15 K, 3154.8 kPa	781.778
323.15 K, 5126.4 kPa	783.557
323.15 K, 7366.8 kPa	785.517
323.15 K, 9081.6 kPa	787.01
323.15 K, 10156 kPa	787.907
323.15 K, 12167 kPa	789.544
323.15 K, 15030 kPa	791.876
323.15 K, 18076 kPa	794.274
323.15 K, 19932 kPa	795.694
323.15 K, 22079 kPa	797.333
323.15 K, 25085 kPa	799.541
323.15 K, 28006 kPa	801.644
323.15 K, 30029 kPa	803.084
323.15 K, 31969 kPa	804.431
